Columns and labels:
[1] = biological target: Inosine-5'-monophosphate dehydrogenase 2 (Homo sapiens, UniProt P12268); experiment: Inhibitory activity against inosine monophosphate dehydrogenase IMPDH II
CCRF-CEM = experiment: Inhibitory activity against proliferation of CEM cell line; format: functional, cell-based, Homo sapiens
[2] = Inhibitory activity against proliferation of peripheral blood mononuclear cells; format: functional, Homo sapiens

Compound | IC50 [1] [nM] | IC50 (CCRF-CEM; Homo sapiens, CCRF-CEM) [nM] | IC50 (CCRF-CEM; ccrf-cem) [nM] | IC50 [2] [nM] | IC50 ([2]; Homo sapiens) [nM]
COc1cc2nc(-c3ccc4c(c3)C([N+](C)(C)C)CC4)cc(O)c2cc1-c1cnco1 (stereo not given) | 30 | > 10000 |  |  | 
COc1cc2nc(-c3ccc4c(c3)C(N(C)C)CC4)cc(O)c2cc1-c1cnco1 (single isomer, unassigned; Enantiomer A) | < 5 |  | 270 | 120 | 
COc1cc2nc(-c3ccc(C)c(N4CCN(C)CC4)c3)cc(O)c2cc1-c1cnco1 | 26 | 1100 |  |  | 
COc1cc2nc(-c3ccc4c(c3)C(N(C)C)CC4)cc(O)c2cc1-c1cnco1 (single isomer, unassigned; enantiomer B) | < 5 |  | 550 | 320 | 
COc1cc2nc(-c3ccc4c(c3)C(N3CCC3)CC4)cc(O)c2cc1-c1cnco1 (stereo not given) | 6 | 800 |  |  | 
COc1cc2nc(-c3ccc4c(c3)C(N3CCCC3)CCO4)cc(O)c2cc1-c1cnco1 (stereo not given) | 33 | 1400 |  |  | 
COc1cc2nc(-c3cccc(N4CCOCC4)c3)cc(O)c2cc1-c1cnco1 | < 50 |  |  |  | 
COCC(=O)N(C)C1CCc2ccc(-c3cc(O)c4cc(-c5cnco5)c(OC)cc4n3)cc21 (stereo not given) | 12 | 1100 |  |  | 
COc1cc2nc(-c3ccc(C)c(OCCN4CCOCC4)c3)cc(O)c2cc1-c1cnco1 | < 5 | 600 |  |  | 
COc1cc2nc(-c3ccc(N4CCOCC4)cc3)cc(O)c2cc1-c1cnco1 | 21 | 1100 |  |  | 
COc1cc2nc(-c3ccc4c(c3)C(N(C)C(C)=O)CC4)cc(O)c2cc1-c1cnco1 (stereo not given) | 18 | 1100 |  |  | 
COc1cc2nc(-c3ccc4c(c3)C(N(C)C)CC4)cc(O)c2cc1-c1cnco1 (stereo in doubt; 27) | 6 |  | 290 |  | 
COc1cc2nc(-c3ccc4c(c3)C(N(C)C)CCC4)cc(O)c2cc1-c1cnco1 (stereo not given) | 15 | 370 |  |  | 
COc1cc2nc(-c3ccc4c(c3)[C@@H](N(C)C)[C@H](OC)C4)cc(O)c2cc1-c1cnco1 | 15 | 700 |  |  | 
COc1cc2nc(-c3ccc(OC)c(N4CCN(C)CC4)c3)cc(O)c2cc1-c1cnco1 | 140 | 10000 |  |  | 
COc1cc2nc(-c3ccc4c(c3)CCC4N(C)C)cc(O)c2cc1-c1cnco1 (stereo not given) | 55 | 4100 |  |  | 
COc1cc2nc(-c3ccc4c(c3)C(N(C)C(=O)CN3CCOCC3)CC4)cc(O)c2cc1-c1cnco1 (stereo not given) | 18 | 1800 |  |  | 
COc1c(C)c2c(c(O)c1C/C=C(\C)CCC(=O)O)C(=O)OC2 [MYCOPHENOLIC ACID] |  |  |  |  | 600

Compound | IC50 [1] [nM] | IC50 (CCRF-CEM; Homo sapiens, CCRF-CEM) [nM] | IC50 (CCRF-CEM; ccrf-cem) [nM] | IC50 [2] [nM] | IC50 ([2]; Homo sapiens) [nM]
COc1cc2nc(-c3ccc4c(c3)C(N(C)C)CCO4)cc(O)c2cc1-c1cnco1 (stereo not given) | 21 | 720 |  |  | 
COc1cc2nc(-c3ccc(C)c(N4CCCC4)c3)cc(O)c2cc1-c1cnco1 | 15 | 780 |  |  | 
COc1cc2nc(-c3ccc4c(c3)N(C(C)=O)CCO4)cc(O)c2cc1-c1cnco1 | 14 | 1300 |  |  | 
COc1cc2nc(-c3ccc(C)c(OCC4CCCO4)c3)cc(O)c2cc1-c1cnco1 (stereo not given) | < 5 | 710 |  |  | 
COc1cc(NC(=O)Nc2cccc(CNC(=O)O[C@H]3CCOC3)c2)ccc1-c1cnco1 [MERIMEPODIB] |  |  |  |  | 170
COc1cc2nc(-c3ccc4c(c3)C(O)CCC4)cc(O)c2cc1-c1cnco1 (stereo not given) | 83 | 3400 |  |  | 
COc1cc2nc(-c3ccc4c(c3)C(=O)CCC4)cc(O)c2cc1-c1cnco1 | < 10 | 520 |  |  | 
COc1cc2nc(-c3cccc(N4CCCC4)c3)cc(O)c2cc1-c1cnco1 | 25 | 2700 |  |  | 
COc1cc2nc(-c3ccc4c(c3)C(OC(=O)N(C)C)CC4)cc(O)c2cc1-c1cnco1 (stereo not given) | 11 |  |  |  | 
COc1cc2nc(-c3ccc4c(c3)C(N3CCOCC3)CC4)cc(O)c2cc1-c1cnco1 (stereo not given) | 20 | 1100 |  |  | 
COc1cc2nc(-c3ccc(C)c(N4CCOCC4)c3)cc(O)c2cc1-c1cnco1 | 5 | 650 |  |  | 
CNC1CCc2ccc(-c3cc(O)c4cc(-c5cnco5)c(OC)cc4n3)cc21 (stereo not given) | 12 | 1600 |  |  | 
COc1cc2nc(-c3ccc(N4CCN(C)CC4)cc3)cc(O)c2cc1-c1cnco1 | 53 | 2200 |  |  | 
COc1cc2nc(-c3ccc4c(c3)CN(C)C4)cc(O)c2cc1-c1cnco1 | 14 | 1100 |  |  | 
COc1cc2nc(-c3ccc4c(c3)C(O)CC4)cc(O)c2cc1-c1cnco1 (stereo not given) | 28 | 3100 |  |  | 
COc1cc2nc(-c3ccc4c(c3)C(N(C)C(=O)Cn3ccnc3)CC4)cc(O)c2cc1-c1cnco1 (stereo not given) | 68 | > 10000 |  |  | 
COc1cc2nc(-c3cccc(N4CCN(C)CC4)c3)cc(O)c2cc1-c1cnco1 | 16 | 1700 |  |  | 
COc1cc2nc(-c3ccc4c(c3)C(N3CCCC3)CC4)cc(O)c2cc1-c1cnco1 (stereo not given) | 13 | 670 |  |  | 

Reference: ChEMBL document CHEMBL1136569, “Quinolone-based IMPDH inhibitors: introduction of basic residues on ring D and SAR of the corresponding mono, di and benzofused analogues” (Bioorg Med Chem Lett, 2003)
